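Test compounds were applied to cells in 96-well plates for 48 hours at 5 doses. Definition used: TGI = concentration required for complete inhibition of growth.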
Legend:
Test in all cases: NCI-60 cell line screen, 48 h
SNB-19 CNS = system: SNB-19 CNS
OVCAR-4 ovarian = system: OVCAR-4 ovarian
SK-OV-3 ovarian = system: SK-OV-3 ovarian
K-562 leukemia = system: K-562 leukemia
MDA-MB-231 breast = system: MDA-MB-231 breast
UACC-257 melanoma = system: UACC-257 melanoma
SF-268 CNS = system: SF-268 CNS
COLO 205 colon = system: COLO 205 colon
RPMI-8226 leukemia = system: RPMI-8226 leukemia
RXF 393 renal = system: RXF 393 renal
SK-MEL-28 melanoma = system: SK-MEL-28 melanoma
HCT-116 colon = system: HCT-116 colon
MCF7 breast = system: MCF7 breast
A498 renal = system: A498 renal
KM12 colon = system: KM12 colon
NCI-H522 lung = system: NCI-H522 lung
OVCAR-8 ovarian = system: OVCAR-8 ovarian
SN12C renal = system: SN12C renal
SF-539 CNS = system: SF-539 CNS
MDA-N = system: MDA-N

Compound	TGI (SNB-19 CNS) [µM]	TGI (OVCAR-4 ovarian) [µM]	TGI (SK-OV-3 ovarian) [µM]	TGI (K-562 leukemia) [µM]	TGI (MDA-MB-231 breast) [µM]	TGI (UACC-257 melanoma) [µM]	TGI (SF-268 CNS) [µM]	TGI (COLO 205 colon) [µM]	TGI (RPMI-8226 leukemia) [µM]	TGI (RXF 393 renal) [µM]	TGI (SK-MEL-28 melanoma) [µM]	TGI (HCT-116 colon) [µM]	TGI (MCF7 breast) [µM]	TGI (A498 renal) [µM]	TGI (KM12 colon) [µM]	TGI (NCI-H522 lung) [µM]	TGI (OVCAR-8 ovarian) [µM]	TGI (SN12C renal) [µM]	TGI (SF-539 CNS) [µM]	TGI (MDA-N) [µM]
CN(C)C1(N(C)C)Oc2c(c(=O)n(C)c(=O)n2C)C(c2ccc(C(F)(F)F)cc2)C1(F)F (centres undefined)	> 100	> 100	> 100	> 100	> 100	> 100	> 100	> 100	> 100	> 100	> 100	> 100	> 100	> 100	> 100					
NC(=O)CN1CC(C2=C(O)CN(CC(N)=O)C2=O)=CC1=O	> 100	> 100	> 100	> 100	> 100	> 100	> 100	> 100	> 100		> 100	> 100	> 100	> 100	> 100	> 100	> 100	> 100	> 100	
CC(=O)OC1OC(c2ccoc2)C[C@@]12C1CCC3O[C@]3(C)[C@]1(C)[C@H](OC(C)=O)[C@H](OC(C)=O)[C@H]2C (some centres undefined)	> 37.5	> 37.5	> 37.5	> 37.5	> 37.5	> 37.5		> 37.5		> 37.5	> 37.5	> 37.5	> 37.5	> 37.5	> 37.5		> 37.5	> 37.5	> 37.5	> 37.5
Cn1c2c(c3ccccc31)CCN=C2C1CCCOC1=O (centres undefined)	> 100	> 100			> 100	> 100	> 100	> 100		> 100	> 100	> 100	> 100	> 100	> 100	> 100	> 100	> 100	> 100	> 100
O=C(c1ccco1)N(C(=S)N1CCN(c2ccccc2)CC1)C1CCCCC1	> 100	> 100	> 100	> 100		> 100	> 100	> 100	> 100	> 100		> 100			> 100	> 100	> 100	> 100	> 100	
COc1cc2c(oc(=O)c3c4occc4cc(OC)c23)c2cccc(OCc3ccccc3)c12	> 100	> 100	> 100	> 100		> 100	> 100	> 100	> 100	> 100	> 100	> 100		83.4	> 100	> 100	> 100	> 100	> 100	
CCC(=O)NI1OC(=O)c2ccccc21		> 100	> 100	> 100	> 100	> 100	> 100	> 100	> 100	> 100	> 100	> 100	> 100	> 100	> 100	48.8	> 100	> 100	> 100	
CCOC(=O)C(C)Sc1nnc(COc2ccc(Cl)cc2)n1-c1ccccc1 (centres undefined)	40.1	42.6	> 100	49.9		47.3	34.7	33.2	45.7	41.7	49.2	36.5			41.9	5.16	60	32.9	36.9	
CC(C)(C)C1CCC2c3c([nH]c4ncccc34)C3C(=O)N(c4ccccc4)C(=O)C3C2C1 (centres undefined)	> 100	> 100	> 100	> 100		> 100	> 100	> 100	> 100	> 100	> 100	> 100			> 100	> 100	> 100	> 100	> 100	
O=C(O)Cc1ccc(Nc2nc3ccccc3nc2C(=O)O)cc1	> 100	> 100	> 100			> 100	> 100	> 100		> 100	> 100	> 100	> 100	> 100	> 100	> 100	> 100	> 100	> 100	> 100
COc1ccc(/C=C2\C[C@H]3[C@@H]4CC=C5C[C@@H](OC(C)=O)CC[C@]5(C)[C@H]4CC[C@]3(C)\C2=N\O)cc1OC	> 100	> 100	> 100	> 100		> 100	> 100	27.1	88.2	> 100	> 100	> 100	> 100	> 100	> 100	> 100	> 100	> 100	> 100	> 100
O=c1[nH]nc(-c2ccccc2)n1/N=C/c1ccco1	> 100	> 100	> 100			> 100	> 100	> 100		> 100	> 100	> 100	> 100	> 100	> 100	> 100	> 100	> 100	> 100	> 100
Cc1ccc(S(=O)(=O)NC(=O)Nc2cccc(S(N)(=O)=O)c2)cc1	> 100	> 100	> 100	> 100	> 100		> 100	> 100	> 100	> 100	> 100	> 100	> 100	> 100	> 100	> 100			> 100	
COC(=O)c1cc(OS(=O)(=O)C(F)(F)F)c(=O)n2c1CCCC2	> 100	> 100	> 100		> 100	> 100	> 100	> 100		> 100	> 100	> 100	> 100	> 100	> 100	> 100	> 100	> 100	> 100	> 100
[N-]=[N+]=NC1(c2ccccc2)C(=O)C(Cl)=C(c2ccccc2)N(c2ccccc2)C1=O (centres undefined)	> 100	> 100	78.6	> 100		> 100	> 100	> 100			> 100	> 100		> 100	> 100	> 100	> 100	> 100	> 100	
N#C/C(c1nc2ccccc2[nH]1)=c1\s/c(=C(/N)O)c(=N)n1-c1ccccc1	> 100	> 100	> 100	> 100		> 100	> 100	> 100			> 100	> 100		> 100		> 100	> 100	> 100	> 100	
Cc1cc(C)c2c(n1)S(=O)(=O)N(CCCN1CCN(c3cccc(Cl)c3)CC1)/C(=C(\O)c1ccccc1)C2=O	> 100	88.8	> 100	> 100	> 100	55.4	> 100	36.9			> 100	92.5	> 100	> 100	> 100	> 100	> 100	93.4	> 100	> 100
COCCOC(=O)NCn1cc(-c2ccccc2)nn1	> 100	> 100		> 100	> 100	> 100		> 100	> 100		> 100	> 100	> 100		> 100	> 100	> 100	> 100	> 100	
S=C=Nc1ccc(CSc2nc3ccccc3[nH]2)cc1	86.1	31.6	40.3	> 100	51.6	34.1	37.8	29	52.5	33.5	37.3	44.5		46	31.7	19.1	32.3	31.3	33.4	40.7
Cc1csc(NNC(N)=O)n1	> 100	> 100	> 100		> 100	> 100	> 100	> 100		> 100	> 100	> 100	> 100		> 100	> 100	> 100	> 100	> 100	> 100
O=C1CNC(=O)/C(=C/c2c[nH]c3ccccc23)N1	> 100	> 100	> 100	> 100		> 100	> 100		> 100	> 100	> 100	> 100	> 100	> 100	> 100	> 100	> 100	> 100		> 100
CCOC(=O)Nc1sc2c(c1C#N)CC(C)CC2 (centres undefined)	27	> 100	> 100	> 100	46.7	42.8	96.6	18.2	34.8	70.2	> 100	25	24.5		36	16.9	> 100	99		
COC(=O)c1c(C)[nH]c2c1C(=O)C(=O)c1nc(C)c(C)nc1-2	27.4	28.7	18.5	> 100		24.6	23.6	29.5	47.3	13.4	25.2	18.2	24.8	40	37.1	21.4	26.8	12.8	24.8	19.9
O/N=C1\CC2(N3CCOCC3)CCC1(c1ccccc1)CC2	> 100	> 100	> 100	> 100		> 100	> 100	> 100	> 100	> 100	> 100	> 100	> 100	> 100	> 100	> 100	> 100	> 100	> 100	> 100
Cc1c(O)c(OC2OC(CO)C(O)C(O)C2O)cc2c1CC[C@@H]1C2(C)C(=O)C[C@]2(C)[C@@H]([C@@](C)(O)C3CCC(C)(C)O3)[C@H](O)C[C@@]12C (some centres undefined)	> 100	> 100	> 100	> 100	> 100	> 100	> 100	> 100		> 100	> 100	> 100	> 100	> 100	> 100	> 100	> 100	> 100	> 100	
Cn1nc2ccc([N+](=O)[O-])cc2[n+]1[O-]	> 100	> 100	> 100	> 100	> 100	> 100		> 100		> 100		> 100	> 100	> 100	> 100	> 100	> 100	> 100	> 100	> 100
O=[N+]([O-])C1=Cc2cc(Cl)ccc2OC1c1cccc2ccccc12 (centres undefined)	3.04	3.09	4.86	5.68	6.23	3.4	3.29	6.71		1.46	3.13	0.355	2.16	3.9	3.5	2.9	1.42	2.54		3.41

— PubChem BioAssay (NCI)
